These results are taken from PubChem BioAssay (NCI).

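Step 1: Grow cells in 96-well plates. Step 2: Expose to compound for 48 hours at 5 concentrations. Step 3: Interpolate endpoints linearly; if unreached, use highest concentration. Here, GI50 denotes the concentration required for 50% inhibition of growth. TGI is the concentration that stops growth completely.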

Some test systems named below: SK-MEL-5 melanoma; SK-MEL-28 melanoma; SN12C renal; A549 NSCLC; SF-295 CNS; SR leukemia; OVCAR-4 ovarian; MALME-3M melanoma; NCI-H226 lung.
What all share (experiment): NCI-60 cell line screen, 48 h

For `CCCCCCCCCCCCNC(=S)OC`, the TGI was found to be 31 µM in the assay with SK-MEL-5 melanoma; 37.9 µM with SK-MEL-28 melanoma; 27.3 µM in the assay with SN12C renal; 35 µM in the assay with A549 NSCLC; 36 µM in the assay on SF-295 CNS; 17.9 µM in the assay on SR leukemia. Further, the TGI with OVCAR-4 ovarian was 38.6 µM; with MALME-3M melanoma, 29.5 µM.

`O=c1c2cccnc2ncn1CCN1CCCCC1`: the TGI in the assay with SK-MEL-5 melanoma, in the assay on SK-MEL-28 melanoma, with SN12C renal, in the assay with NCI-H226 lung, in the assay on A549 NSCLC and with SF-295 CNS was above 100 µM each time. For the same molecule, the TGI in the assay on SR leukemia, with OVCAR-4 ovarian and with MALME-3M melanoma was above 100 µM each time.

With `COc1cc2c(cc1O)[C@H](C)C(c1ccc(OC)c(OC)c1)O2` (stereo partly drawn), the TGI in the assay with SK-MEL-5 melanoma was 20.8 µM; in the assay with SK-MEL-28 melanoma it was 23 µM; in the assay on NCI-H226 lung it was 64.6 µM; in the assay with A549 NSCLC it was above 100 µM; in the assay with SF-295 CNS it was above 100 µM; in the assay on OVCAR-4 ovarian, 26.2 µM. The TGI in the assay on MALME-3M melanoma stood at 22.8 µM.

Regarding `N#CCCC[Si]12OCCN(CCO1)CCO2`, the TGI in the assay with SK-MEL-5 melanoma, in the assay with SK-MEL-28 melanoma, in the assay on SN12C renal, in the assay on NCI-H226 lung, with A549 NSCLC and in the assay with SF-295 CNS was above 100 µM each time. For the same molecule, the TGI in the assay on SR leukemia and in the assay with MALME-3M melanoma was above 100 µM each time.

As to `CN(C)CC1CCC/C1=N/OC(=O)c1ccccc1` (stereo not drawn), the TGI with SK-MEL-5 melanoma, in the assay with SK-MEL-28 melanoma, in the assay on SN12C renal, in the assay on NCI-H226 lung, in the assay on SF-295 CNS and in the assay with SR leukemia was above 100 µM each time. This molecule registered a TGI with OVCAR-4 ovarian above 100 µM.

Regarding `O=S1C(=c2ccc(=C3Sc4ccccc4S3)cc2)Sc2ccccc21` (stereo not drawn), the TGI in the assay on SK-MEL-5 melanoma turned out to be 33.3 µM; with SK-MEL-28 melanoma, 7 µM; in the assay on SN12C renal it was 29.3 µM; in the assay on NCI-H226 lung it was 34 µM; in the assay with A549 NSCLC it was 35.5 µM; with SF-295 CNS, 31.2 µM. Also, the TGI in the assay with SR leukemia, with OVCAR-4 ovarian and with MALME-3M melanoma was above 100 µM in each case.

Regarding `S=P1(Oc2ccccc2)NNP2(=NP(N3CC3)(N3CC3)=NP(N3CC3)(N3CC3)=N2)NN1` (stereo not drawn), the TGI in the assay with SK-MEL-5 melanoma, in the assay on SK-MEL-28 melanoma, with SN12C renal, with NCI-H226 lung, in the assay with A549 NSCLC and in the assay on OVCAR-4 ovarian was above 100 µM each time. In the assay on MALME-3M melanoma, the TGI is above 100 µM.

Take `O=C1C(C(Nc2ccccc2)c2ccccc2)=C([O-])c2ccccc21.O=C1C(C(Nc2ccccc2)c2ccccc2)=C([O-])c2ccccc21.[Cu+2]` (stereo not drawn): the GI50 with SK-MEL-5 melanoma was 7.54 µM; in the assay with SK-MEL-28 melanoma, above 100 µM; in the assay on SN12C renal it was 41.5 µM; in the assay on A549 NSCLC it was 27.2 µM; in the assay with SF-295 CNS, 48.2 µM; in the assay with SR leukemia, 42.2 µM. In the assay with MALME-3M melanoma, the GI50 was 65.8 µM. Further, the TGI in the assay on SK-MEL-5 melanoma, in the assay with SK-MEL-28 melanoma, in the assay with SN12C renal, with A549 NSCLC, in the assay on SF-295 CNS and in the assay with SR leukemia was above 100 µM in each case. In addition, in the assay on MALME-3M melanoma, the TGI is above 100 µM.

In the case of `CC(=O)OCCOCNC(=S)N/N=C/c1ccc([N+](=O)[O-])o1`, the TGI with SK-MEL-5 melanoma, in the assay with SK-MEL-28 melanoma, in the assay with SN12C renal, in the assay on NCI-H226 lung, in the assay with A549 NSCLC and in the assay on SF-295 CNS was above 100 µM in each case. The TGI in the assay with OVCAR-4 ovarian and in the assay with MALME-3M melanoma was above 100 µM each time.

In the case of `COCCOCOC(CCCCO)c1cc(C)c(O[Si](C)(C)C(C)(C)C)c(C)c1` (stereo not drawn), the TGI with SK-MEL-5 melanoma was determined as 12.8 µM; with SK-MEL-28 melanoma, 25.2 µM; in the assay with SN12C renal it was 8.73 µM; with NCI-H226 lung it was 10.3 µM; with A549 NSCLC, 16.1 µM; with SF-295 CNS, 16.3 µM. This molecule also had a TGI with MALME-3M melanoma of 13.3 µM.

With `CNC(=O)NCCCC(NC(C)=O)C(=O)NCc1ccccc1` (stereo not drawn), the TGI in the assay on SK-MEL-5 melanoma, in the assay on SK-MEL-28 melanoma, in the assay with SN12C renal, in the assay on NCI-H226 lung, with A549 NSCLC and with SF-295 CNS was above 100 µM throughout. The TGI with OVCAR-4 ovarian and with MALME-3M melanoma was above 100 µM throughout.

For `Cc1ccc(S(=O)(=O)N2CCC2c2ccccc2)cc1` (stereo not drawn), the TGI with SK-MEL-5 melanoma, with SK-MEL-28 melanoma, with SN12C renal, in the assay with NCI-H226 lung, with A549 NSCLC and in the assay with SF-295 CNS was above 100 µM in each case. Besides, the TGI with OVCAR-4 ovarian and with MALME-3M melanoma was above 100 µM each time.

Regarding `CC1(C)CC(c2c[nH]c3ccccc23)=CC2=Nc3ccccc3C21O` (stereo not drawn), the TGI in the assay on SK-MEL-5 melanoma was above 100 µM; with SK-MEL-28 melanoma it was 77.7 µM; with SN12C renal, above 100 µM; in the assay with NCI-H226 lung it was 57.7 µM; in the assay on A549 NSCLC, above 100 µM; with SF-295 CNS it was above 100 µM. The TGI in the assay on OVCAR-4 ovarian and in the assay on MALME-3M melanoma was above 100 µM in each case.

With `CN(C)CC1CCCC/C1=N/O` (stereo not drawn), the TGI with SK-MEL-5 melanoma, in the assay on SK-MEL-28 melanoma, in the assay with SN12C renal, with NCI-H226 lung, with A549 NSCLC and in the assay with SF-295 CNS was above 100 µM in each case. The TGI in the assay on OVCAR-4 ovarian and with MALME-3M melanoma was above 100 µM each time.

Take `N#CC(C(=O)CCC(=O)Nc1ccc(Cl)c(Cl)c1)c1ccccc1` (stereo not drawn): the TGI in the assay with SK-MEL-5 melanoma, with SK-MEL-28 melanoma, in the assay on SN12C renal, in the assay on NCI-H226 lung, in the assay on A549 NSCLC and in the assay on SF-295 CNS was above 100 µM in each case. Also, the TGI in the assay on OVCAR-4 ovarian and in the assay on MALME-3M melanoma was above 100 µM throughout.

As for `CCCC/C=C/C=C/C=C/CCCCCCCC(=O)OCC(COC(=O)CCCCCCC/C=C/C1C=CC(CCCC)C(C(=O)O)C1C(=O)O)OC(=O)CCCCCCC/C=C/C=C/C=C/CCCC` (stereo not drawn) (tested in a mixture with another compound), the TGI is 31.1 µM with SK-MEL-5 melanoma; 33.3 µM with SK-MEL-28 melanoma; 44.3 µM in the assay on SN12C renal; 35.8 µM in the assay on NCI-H226 lung; 37.1 µM in the assay on A549 NSCLC; 35.8 µM in the assay with SF-295 CNS. In addition, the TGI with OVCAR-4 ovarian is 34.7 µM; in the assay on MALME-3M melanoma, 35.8 µM.

Take `O=C(NC1C=CCC2C(=O)N(c3ccccc3)C(=O)C12)OCc1ccccc1` (stereo not drawn): the TGI with SK-MEL-5 melanoma, in the assay with SK-MEL-28 melanoma, in the assay with SN12C renal, with NCI-H226 lung, with A549 NSCLC and in the assay on SF-295 CNS was above 100 µM throughout. For the same molecule, the TGI with SR leukemia and in the assay on OVCAR-4 ovarian was above 100 µM each time.

`O=C(Nc1nc(=S)[nH][nH]1)C(=O)C(C(=O)c1ccc2ccccc2c1)C1OC(=O)c2ccccc21` (stereo not drawn): the TGI was 43.9 µM with SK-MEL-5 melanoma; 49.1 µM in the assay on SK-MEL-28 melanoma; 47.2 µM in the assay on SN12C renal; 19.8 µM in the assay with NCI-H226 lung; above 100 µM with A549 NSCLC; 58.2 µM in the assay on OVCAR-4 ovarian. The same molecule registered a TGI with MALME-3M melanoma above 100 µM.

Consider `Clc1ccc2cccc3c2c1C1OC3c2ccccc21` (stereo not drawn), for which the TGI in the assay on SK-MEL-28 melanoma, in the assay with SN12C renal, with NCI-H226 lung, with A549 NSCLC, in the assay on SF-295 CNS and with SR leukemia was above 100 µM throughout. In the assay with MALME-3M melanoma, this molecule registered a TGI above 100 µM.

Consider `CN1C(=O)C(=O)N2c3ccc(Cl)cc3C3(c4ccccc4)N=CC12O3` (stereo not drawn), for which the TGI turned out to be 17.6 µM in the assay on SK-MEL-5 melanoma; 12.1 µM in the assay with SK-MEL-28 melanoma; 13.7 µM with SN12C renal; 26.8 µM in the assay on NCI-H226 lung; 23.1 µM in the assay on A549 NSCLC; 23.2 µM in the assay with SF-295 CNS. Also, the figures for the TGI in the assay with OVCAR-4 ovarian and with MALME-3M melanoma were 8.43 µM and 47.2 µM, respectively.

Turning to `COc1c(CC(C)=O)ccc2c1C(=O)c1ccc(C=O)c(OC(C)=O)c1C2=O`, the TGI is 27.8 µM in the assay on SK-MEL-5 melanoma; 23 µM in the assay on SK-MEL-28 melanoma; 27.6 µM in the assay on SN12C renal; 36.2 µM in the assay with NCI-H226 lung; above 100 µM in the assay with A549 NSCLC; 53.3 µM in the assay with SF-295 CNS. Further, the TGI came out at 30.4 µM in the assay on OVCAR-4 ovarian and 25.5 µM in the assay on MALME-3M melanoma.

For `CCOC(=O)C1Sc2ccccc2N=C1C` (stereo not drawn), the TGI in the assay with SK-MEL-28 melanoma, in the assay with SN12C renal, in the assay with NCI-H226 lung, in the assay with A549 NSCLC, in the assay with SF-295 CNS and with SR leukemia was above 100 µM in each case. Moreover, the TGI in the assay on OVCAR-4 ovarian and with MALME-3M melanoma was above 100 µM throughout.

On to `CN(C)C=Nc1nc(=O)n(C2CCC(CO)O2)cc1F` (stereo not drawn), for which the TGI in the assay with SK-MEL-5 melanoma, in the assay on SK-MEL-28 melanoma, with SN12C renal, in the assay with NCI-H226 lung, in the assay with A549 NSCLC and with SF-295 CNS was above 100 µM throughout. The TGI in the assay on OVCAR-4 ovarian and in the assay on MALME-3M melanoma was above 100 µM each time.

Consider `Cc1nc(-c2nc(C)c(C(=O)NNC(=O)C[n+]3ccccc3)s2)sc1C(=O)NNC(=O)C[n+]1ccccc1`, for which the TGI in the assay on SK-MEL-5 melanoma, in the assay on SK-MEL-28 melanoma, with SN12C renal, with NCI-H226 lung, with A549 NSCLC and in the assay with SF-295 CNS was above 100 µM in each case. In the assay on MALME-3M melanoma, this molecule displayed a TGI above 100 µM.
